These results are taken from EP1056700B1, “MEDICINAL USES OF PHENYLALKANOLS AND DERIVATES” (ZingoTX Pty Ltd, priority 1997, dated 1999).

For one data set, the system named is rat mesenteric artery. The experiment in a line: Vasodilation on rat mesenteric small arteries. As to conditions: relaxation of small arteries (200-300 µm) precontracted with endothelin. An excerpt: Small arteries (200-300 µm in diameter) isolated from rat mesentery were precontracted with endothelin prior to addition of the test substances and tested for relaxation.

The nature of data set [1]: Brine shrimp toxicity bioassay. It counts as in vivo. As to conditions: Artemia salina (brine shrimp), in vivo; 24 hours, 2% DMSO. An excerpt: (§1) The brine shrimp assay procedure determines LC50 values of active compounds. Activities of a broad range of known active compounds are manifested as toxicity to brine shrimp (Artemia salina Leach). There are many applications of the assay including analysis of toxic substances, anaesthetics, morphine-like substances and cocarcinogenicity of phorbol esters.
(§2) The method for testing solvent toxicity used was basically that reported by J L McLaughlin in Methods of Plant Biochemistry (1991), vol. 6 (K Hostettman, ed.), Academic Press, London, 1-32. DMSO solutions of the substances to be tested were added directly to the vials containing the brine shrimp. As the concentration of DMSO that we wished to use was higher than the recommended 1% v/v testing of the toxicity of the DMSO was therefore necessary. The concentrations of DMSO tested on the shrimp, along with the results from the assay which was done in duplicate are listed below.
(§3) Brine shrimp toxicity was assayed, except for some minor modifications, according to the method of McLaughlin et al as reported in Brine Shrimp: A convenient bioassay for active plant constituents, B N Meyer, N R Ferrigni, J E Putnam, L B Jacobsen, D E Nichols and J L McLaughlin in Planta Medica (1982), 45, 31-34 and Crown gall tumours on potato discs and brine shrimp lethality: Two simple bioassays for higher plant screening and fractionation. J L McLaughlin. Methods of Plant Biochemistry (1991), vol. 6 (K Hostettman, ed.), Academic Press, London, 1-32. Ten shrimp were transferred to each of the vials and the volume adjusted to 4.9 mL. Each dose was performed in triplicate, including the control. In quick succession, the appropriate volume of additional DMSO for each dose, required to achieve a final concentration of 2%, was added before the appropriate volume of test solution. The vials were gently mixed and the time noted. After 24 hours, the number of survivors were counted and % mortality was determined. The test compounds were assayed at concentrations of 100 µM, 25 µM, 5 µM, 1 µM and 0.2 µM (and where appropriate concentrations of 0.04 µM and 0.008 µM).
(§4) The brine shrimp were able to survive without food in the vials over the 24 hour period and were therefore not fed.
(§5) The dose-response curves were constructed using the Sigmaplot computer program and the LC50 value was calculated from the intersection point of the curve and the 50 % mortality line. The LC50 values were expressed in both µM and µg/mL.

In a further data set the target is T1, Lipoxygenase (LP) (Rattus norvegicus, UniProt P12527).
T1 construct: cell-free enzyme (Wong et al, 1991) prepared from rat basophilic leukemia (RBL) 2H3 cell lines; endogenous in cells; host or cells: RBL 2H3 (rat basophilic leukemia), 15,000 g supernatant of cells disrupted by nitrogen cavitation
T1 sequence (P12527 1-673): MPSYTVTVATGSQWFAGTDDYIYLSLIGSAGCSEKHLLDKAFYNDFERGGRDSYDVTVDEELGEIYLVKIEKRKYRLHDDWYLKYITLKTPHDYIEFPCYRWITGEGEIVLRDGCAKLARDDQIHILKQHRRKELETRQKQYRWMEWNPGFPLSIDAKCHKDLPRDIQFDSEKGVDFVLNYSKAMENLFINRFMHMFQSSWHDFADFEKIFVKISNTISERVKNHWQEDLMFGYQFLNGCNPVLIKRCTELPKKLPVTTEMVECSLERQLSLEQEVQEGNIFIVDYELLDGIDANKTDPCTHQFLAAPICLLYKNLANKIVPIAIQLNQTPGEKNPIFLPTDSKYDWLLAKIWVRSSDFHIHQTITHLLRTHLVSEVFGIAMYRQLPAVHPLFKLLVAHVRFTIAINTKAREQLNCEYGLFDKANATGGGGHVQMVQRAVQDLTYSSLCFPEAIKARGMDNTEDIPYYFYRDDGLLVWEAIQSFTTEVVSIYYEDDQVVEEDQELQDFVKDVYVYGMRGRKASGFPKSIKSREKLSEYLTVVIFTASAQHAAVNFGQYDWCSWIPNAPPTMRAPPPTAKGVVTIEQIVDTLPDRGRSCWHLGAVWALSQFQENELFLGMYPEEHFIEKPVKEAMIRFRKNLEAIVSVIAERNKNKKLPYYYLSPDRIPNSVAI
Nature of the data set: Lipoxygenase assay with cell-free enzyme from RBL 2H3 cells (EIA). It counts as biochemical. Particulars: final concentration of 10 µM. How it is done:
Lipoxygenase (LP) assay was performed with cell-free enzyme (Wong et al, 1991) prepared from rat basophilic leukemia (RBL) 2H3 cell lines. Cells were cultured in EMEM containing 10% fetal calf serum and antibiotic until cells reached confluence. Harvested cells were resuspended in Hepes (10 mM) buffer, pH 7.4, containing 1 mM EDTA at 1 x 10^7 cells/ml, and disrupted by nitrogen cavitation using a Parr bomb at 750 psi for 15 min. The broken cells were centrifuged at 15,000 g for 30 min. Aliquots (0.1 ml) of the supernatant were preincubated with or without drugs in Hepes buffer (10 mM Hepes, pH 7, 1 mM EDTA and 150 mM NaCl) for 5 min, and the reaction was initiated with the addition of 50 µl of CaCl2 (16 mM), 50 µl of ATP (2 mM), 5 µl of PAF (2.5 mg/ml) and 5 µl of AA (2.5 mM). The reaction mixture ([…]) was incubated at room temperature for a further 8 min, then diluted with EIA buffer at 1/200 and 1/2000 dilutions and stored on ice for EIA following the protocol provided with the kit.
Validation of LP enzyme activity was carried out by a UV spectrophotometric method in which the enzyme activity was characterised against various concentrations of Ca^2+, ATP, PAF and AA with the measurement of the formation of diene conjugated products of LP at 235 nm.
All compounds were dissolved in DMSO and assayed at a final concentration of 10 µM. NDGA was used as reference compound. The concentration of DMSO in the assay was maintained at 1.5%.

The target in a further data set is T2, SR Ca^2+-ATPase (Canis lupus familiaris, UniProt O46674).
T2 construct: Effect of gingerols and their derivatives on the Ca^2+-ATPase activity of dog cardiac SR; from tissue; host or cells: dog heart (cardiac sarcoplasmic reticulum)
T2 sequence (O46674 whole entry): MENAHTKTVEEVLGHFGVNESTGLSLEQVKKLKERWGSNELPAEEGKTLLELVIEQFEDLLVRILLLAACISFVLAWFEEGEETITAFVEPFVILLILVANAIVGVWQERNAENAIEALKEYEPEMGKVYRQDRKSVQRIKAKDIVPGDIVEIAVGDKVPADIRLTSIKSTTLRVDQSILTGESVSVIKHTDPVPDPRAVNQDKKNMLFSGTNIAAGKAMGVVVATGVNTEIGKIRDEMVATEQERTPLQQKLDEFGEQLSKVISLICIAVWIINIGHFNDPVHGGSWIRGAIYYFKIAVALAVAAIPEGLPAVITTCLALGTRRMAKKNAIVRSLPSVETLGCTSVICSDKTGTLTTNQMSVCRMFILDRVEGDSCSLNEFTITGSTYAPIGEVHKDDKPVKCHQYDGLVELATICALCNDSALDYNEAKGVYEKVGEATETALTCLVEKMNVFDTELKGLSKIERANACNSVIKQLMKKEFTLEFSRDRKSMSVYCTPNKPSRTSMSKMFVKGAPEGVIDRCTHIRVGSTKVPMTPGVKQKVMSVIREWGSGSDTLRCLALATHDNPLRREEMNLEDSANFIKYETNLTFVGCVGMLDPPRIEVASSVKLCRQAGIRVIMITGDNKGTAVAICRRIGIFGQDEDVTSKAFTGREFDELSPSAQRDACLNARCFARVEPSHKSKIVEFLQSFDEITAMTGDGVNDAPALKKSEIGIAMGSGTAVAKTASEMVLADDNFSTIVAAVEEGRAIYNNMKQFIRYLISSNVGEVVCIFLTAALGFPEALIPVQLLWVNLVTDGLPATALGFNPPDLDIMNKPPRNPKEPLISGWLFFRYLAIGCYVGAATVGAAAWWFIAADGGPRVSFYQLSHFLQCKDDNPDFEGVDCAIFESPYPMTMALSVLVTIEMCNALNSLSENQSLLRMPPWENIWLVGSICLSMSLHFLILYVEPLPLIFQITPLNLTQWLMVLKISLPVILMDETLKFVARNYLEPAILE
Nature of the data set: Sarcoplasmic reticulum Ca^2+-ATPase assay. Format: biochemical, dog. As to conditions: for SR Ca^2+-ATPase Activity: 0 µM = 100, dog cardiac SR; for IC50: read-out: SR Ca^2+-ATPase IC50 = conc. for 50% inhibition. How it is done: A portion at each concentration (54 µl) was aliquoted into 4 designated wells of the microplate (two of four wells were controls). Each well was mixed with ATP solution (20 mM, 6 µl), except the controls, using an 8 channel pipette. The controls were assayed in the absence of ATP or calcium.
The plate was incubated with the lid on, for 30 min at 37°C, colour reagent (160 µl) was then added and mixed with citrate solution (34%, 30 µl). The plate was developed at room temperature for 30 min then absorbance at 655 nm was read from the microplate reader. The Ca^2+-ATPase activity was quantitated, from a Pi standard curve, as concentration of liberated inorganic phosphate.
Stock solutions (10 mM) of test substance were prepared in DMSO, then series dilutions were made either in DMSO or in 1M HEPES to produce the dose-response concentrations. The maximum concentration of DMSO in the final assay solution was 2.5%.
Each concentration of test substance was assayed in duplicate in the presence and absence of ATP or calcium. Phosphate standards are run on each plate as follows:
Effect of gingerols and their derivatives on the Ca^2+-ATPase activity of dog cardiac SR.

The next data set has as its system guinea pig atria. Nature of the data set: Organ bath assay on isolated guinea pig atria (rate and force of contraction). As to conditions: guinea pig atria. The method, then:
Male guinea pigs, 3-4 weeks old, were killed by rapid cervical dislocation without induced anaesthesia. Then, the guinea pigs were dissected to isolate the atria which were immediately mounted vertically in an organ bath containing Krebs-Henseleit solution oxygenated with carbogen.
One gram tension was applied to the atria and the base line continuously adjusted until it was stable for 20 mins. The rate and force of contraction were recorded using Mac Lab equipment.
Test substances in DMSO were assayed to a maximum concentration of 50 µM at a final concentration of 2.5 % of DMSO.

The test system of data set [2] is brine shrimp (Artemia salina Leach). Nature of the data set: Brine shrimp toxicity bioassay. Format: in vivo.
Description: as §1, §2, §3, §4, §5

“And” between values parts separate entries of the source, which are not always exact repeats. Equal values may be shown once.

Consider `CCCCCCCCCC(O)CCc1ccc(O)c(OC)c1` (single isomer, unassigned) [enantiomer-2, 1-(4-hydroxy-3-methoxyphenyl)dodecan-3-ol], for which it took 320 nM to reach a half-maximal effect with rat mesenteric artery (Rattus norvegicus) (EC50).
`CCCCCCCCCC(O)CCc1ccc(O)c(OC)c1` (single isomer, unassigned; enantiomer-1) [enantiomer-1, enantiomer-1 of 1-(4-hydroxy-3-methoxyphenyl)dodecan-3-ol] yielded an EC50 in the data set on rat mesenteric artery of 500 nM.
For `CCCCCCCC=CC(=O)C=Cc1ccc(O)c(OC)c1` [1-(4-hydroxy-3-methoxyphenyl)dodecane-1,4-diene-3-one], the LC50 at 24 h in data set [1] was 5.4 µM and 1.6 µg/mL. In addition, the activity at 10 µM at Lipoxygenase (LP) was 2%.
Turning to `CCCCCCCCCC(O)CC(=O)c1ccc(O)c(OC)c1` (stereo not shown) [3-hydroxy-1-(4-hydroxy-3-methoxyphenyl)dodecan-1-one], the “SR Ca^2+-ATPase Activity” value at SR Ca^2+-ATPase (1 µM) stood at 122; on SR Ca^2+-ATPase (5 µM), 111; at SR Ca^2+-ATPase (10 µM), 133; at SR Ca^2+-ATPase (25 µM), 147; on SR Ca^2+-ATPase (50 µM) it was 158; at SR Ca^2+-ATPase (100 µM), 149. Further, the “SR Ca^2+-ATPase ↑ increase or stimulation” value on SR Ca^2+-ATPase (@ 10 µM) is “↑60% @ 10”. For the same compound, at SR Ca^2+-ATPase, the IC50 stood at 50000 nM. Also, in the data set on guinea pig atria (@ 30 (µM)), the “FORCE OF CONTRACT^n ↑ increase” value is recorded as “↑11% @ 30”. In addition, the LC50 at 24 h in data set [1] is 10 µM and 3.2 µg/mL.
For `CCCCCCCC(O)CC(=O)C=Cc1ccc(O)cc1` (stereo not shown) [5-hydroxy-1-(4-hydroxyphenyl)dodecan-1-ene-3-one], the LC50 at 24 h in data set [1] is 2.6 µM and 0.75 µg/mL.
`C[S+](C)[O-]` [DMSO, dimethyl sulfoxide]: the “% Deaths” value in data set [2] (Conc 1 % v/v) stood at 0%; in data set [2] (Conc 2 % v/v), 0%; in data set [2] (Conc 3 % v/v) it was 0%; in data set [2] (Conc 4 % v/v), 0%; in data set [2] (Conc 5 % v/v), 9%; in data set [2] (Conc 7 % v/v), 12%. The “% Deaths” value in data set [2] (Conc 9 % v/v) is listed as 18%; in data set [2] (Conc 11 % v/v), 57%; in data set [2] (Conc 13 % v/v) it was 96%; in data set [2] (Conc 15 % v/v) it was 100%; in data set [2] (Conc 20 % v/v), 100%; in data set [2] (Conc 25 % v/v), 100%.
As for `CCCCCC(O)CC(=O)CCc1ccc(O)cc1` (stereo not shown) [[6]-demethoxygingerol, 5-hydroxy-1-(4-hydroxyphenyl)decan-3-one], the IC50 on SR Ca^2+-ATPase was more than 100000 nM. In the data set on guinea pig atria (result in words), the “FORCE OF CONTRACT^n” value was “inactive” and the “HEART RATE” value was “inactive”. Also, in data set [1], the LC50 at 24 h is > 100 µM and > 26 µg/mL.
